Calls of active or inactive are those of the source. The calls are words filed in the database; no cut-off is given here.
Assays:
[1] = system: L6; assay: Insulin mimetic activity in rat L6 cells assessed as stimulation of 2-deoxyglucose uptake at 0.1 nM by enzymatic method relative to untreated control; format: functional
[2] = system: L6; assay: Insulin mimetic activity in rat L6 cells assessed as stimulation of 2-deoxyglucose uptake at 1 nM by enzymatic method relative to untreated control; format: functional
[3] = system: L6; assay: Insulin mimetic activity in rat L6 cells assessed as stimulation of 2-deoxyglucose uptake at 1 mM by enzymatic method relative to untreated control; format: functional, cell-based

Structure (SMILES) | Activity ([1]; filed as antagonist) | Activity [2] | Activity [3] | Activity [1] [%]
O=c1c(O[C@@H]2O[C@H](CO)[C@@H](O)[C@H](O)[C@H]2O)c(-c2ccc(O)cc2)oc2cc(O)cc(O)c12 | Irreversible Antagonist | inactive |  | 
C[C@H]1O[C@H](O[C@H]2[C@H](Oc3c(-c4ccc(O)cc4)oc4cc(O)cc(O)c4c3=O)O[C@H](CO)[C@@H](O)[C@@H]2O)[C@@H](O)[C@@H](O)[C@@H]1O |  | 200% | inactive | 
C[C@@H]1O[C@@H](O[C@H]2C(O)O[C@H](CO)[C@@H](O)[C@@H]2O)[C@H](O)[C@H](O)[C@H]1O (some centres not stated) [NEOHESPERIDOSE] |  | 200% |  | 200
O=c1c(O)c(-c2ccc(O)cc2)oc2cc(O)cc(O)c12 |  | inactive |  | 
